Data on 21 compounds can be found in PubChem BioAssay (NCI).

“And” between values parts separate entries of the source, which are not always exact repeats. Identical values can stand only once.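 Five concentrations, 48 hours, 96-well plates. Here, GI50 denotes the concentration required for 50% inhibition of growth. TGI: concentration producing complete growth inhibition.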 Where only a bound is given, the exact number is not on record here.

Holding throughout (assay): NCI anticancer screen, dose series, 48 h
The subject of assay [1] is 786-0 renal.
Assay [2] deals with HCT-116 colon.
Assay [3] relates to HOP-92 NSCLC.
Assay [4] concerns K-562 leukemia.
Assay [5] concerns KM12 colon.
Assay [6] deals with LOX IMVI melanoma.
In assay [7] the test system is MOLT-4 leukemia.
The test system of assay [8] is NCI-H226 lung.
Assay [9] concerns UACC-62 melanoma.
Assay [10] deals with UO-31 renal.

For the compound `CCOC1Oc2ccccc2C(=O)/C1=C\Nc1ccc(C(=O)O)c(O)c1` (stereo unspecified), the GI50 is 30.1 µM in [1]; 15.7 µM in assay [2]; 19.6 µM in assay [3]; 36.4 µM in assay [4]; 26.3 µM in assay [5]; 18.2 µM in assay [6]. Also, the GI50 in assay [7] was more than 100 µM; in [8], 28.1 µM; in [9], 19.6 µM; in [10], 40.2 µM. For the same compound, the TGI in [1] was more than 100 µM; in assay [2] it was 35.1 µM; in [3], 60.6 µM; in assay [4], more than 100 µM; in assay [5], 65 µM; in assay [6], 46.8 µM. The TGI was more than 100 µM in [7], 80.1 µM in [8], 43.5 µM in [9] and more than 100 µM in assay [10].
As to `CC[C@H](C)C(=O)O[C@H]1CCC=C2C=C[C@H](C)[C@H](CC[C@@H]3C[C@@H](O)CC(=O)O3)[C@H]21`, the GI50 in assay [1] was 8.95 µM; in [2], 2.84 µM; in assay [3], 0.135 µM; in assay [4], 22 µM; in [6] it was 1.07 µM; in [8] it was 6.82 µM. For the same compound, the GI50 in assay [9] is 2.51 µM; in assay [10], 5.29 µM. In addition, the TGI was more than 74.5 µM in [1]; more than 59 µM in assay [2]; 0.706 µM in [3]; more than 100 µM in assay [4]; more than 100 µM in assay [5]; 6.53 µM in assay [6]. Further, the TGI is more than 100 µM in assay [7], more than 82.2 µM in assay [8], more than 24.4 µM in [9] and more than 100 µM in assay [10].
As to `O=C(CC1(O)C(=O)Nc2c(Cl)cc(Cl)cc21)c1ccc([N+](=O)[O-])cc1` (stereo unspecified), the TGI in assay [1] is more than 100 µM; in assay [2], more than 59.2 µM; in assay [3], 75.5 µM; in assay [4], more than 100 µM; in assay [5], more than 100 µM; in assay [6], more than 100 µM. In addition, the TGI in assay [7] is more than 100 µM; in [8], more than 73.3 µM; in [9], more than 53.6 µM; in [10] it was 35.1 µM.
On to `CCc1cc2c(Nc3ccccc3)c3c(nc2s1)CCCC3`, for which the TGI in assay [1] was more than 100 µM; in assay [2] it was more than 100 µM; in assay [3], more than 100 µM; in [4] it was more than 100 µM; in assay [5], more than 100 µM; in assay [6], 42 µM. In addition, the TGI in assay [7], in assay [9] and in assay [10] was more than 100 µM in each case.
As to `C=C1C(=O)O[C@H]2C3OC3(C)CC/C=C(/C(=O)OC)[C@@H](OC(C)=O)[C@H](OC(=O)C3(C)OC3C)[C@H]12` (stereo partly specified), the GI50 in assay [1] was 1.65 µM and 362 nM and 1.26 µg/mL; in [2], 1.17 µM and 668 nM and 0.444 µg/mL; in [3], 0.817 µg/mL; in [4], 416 nM and 0.359 µg/mL; in [5], 9.13 µM and 370 nM and 2.36 µg/mL; in assay [6], 1.36 µM and 1.24 µM. Besides, the GI50 in [7] was 216 nM and 0.323 µg/mL; in [8] it was 1.6 µM and 8.12 µg/mL; in assay [9] it was 1.59 µM and 1.66 µg/mL; in assay [10], 2.29 µM and 2.04 µM and 2.66 µg/mL. Further, the TGI in [1] is 3.73 µM and 8.4 µM and 3.45 µg/mL; in [2] it was 2.39 µM and 1.67 µM and 1.19 µg/mL; in [3], 3.13 µM and 1.26 µg/mL; in assay [4], 1.15 µM and 2.25 µM and 1.15 µg/mL; in assay [5], 1.64 µM and 7.08 µg/mL; in assay [6], 2.74 µM and 2.7 µM. The TGI is 938 nM and 1.17 µg/mL in assay [7]; 3.25 µM and 31 µg/mL in [8]; 3.01 µM and 3.64 µg/mL in [9]; 6.69 µM and 9.13 µM and 5.8 µg/mL in [10].
Regarding `CC(/C=C1\CCC(CN(C)C)C1=O)c1cccc(Br)c1` (stereo unspecified), the TGI in assay [1] turned out to be 12.3 µM; in [2] it was 31 µM; in assay [3] it was 33.5 µM; in [4], 9.43 µM; in [5] it was 23.9 µM; in [7], 13.3 µM. The values for the TGI in assay [8], in [9] and in assay [10] were 48.8 µM, 32.4 µM and 33.2 µM, respectively.
For `CC(C)c1ccc(C(O)(C(=O)O)c2ccc(C(C)C)cc2)cc1`, the TGI in assay [1], in assay [2], in assay [3], in assay [4], in assay [5] and in assay [6] was more than 100 µM each time. In addition, the TGI in assay [7] was more than 100 µM; in [8], 54.6 µM; in assay [9], more than 100 µM; in assay [10], more than 100 µM.
On to `CC(Oc1ccc2c(=O)cc(-c3ccccc3)oc2c1)C(=O)O` (stereo unspecified), for which the TGI in assay [1], in assay [2], in assay [3], in [4], in assay [5] and in assay [6] was more than 100 µM in each case. The TGI in assay [7], in assay [8], in assay [9] and in assay [10] was more than 100 µM throughout.
With `O=c1oc2c(O)c(O)cc3c(=O)oc4c(O)c(O)cc1c4c23`, the TGI in [1] was 71.6 µM; in [2] it was more than 100 µM; in assay [3] it was 99 µM; in assay [4] it was more than 100 µM; in assay [5], more than 100 µM; in [6] it was more than 100 µM. Also, the TGI in [7] is more than 100 µM; in assay [8], 57.4 µM; in [9] it was more than 100 µM; in assay [10], more than 100 µM. In addition, the GI50 in assay [4], in assay [5] and in assay [7] was more than 100 µM in each case.
For `N#Cc1ccc(O)c(C2=NCC(c3ccc(-c4ccccc4)cc3)O2)c1` (stereo unspecified), the GI50 in assay [1] is 0.626 µM; in assay [2], 0.462 µM; in assay [3] it was 0.421 µM; in [4], 0.338 µM; in assay [5] it was 0.462 µM; in assay [6], 0.0579 µM. In addition, the GI50 in assay [7] is 0.482 µM; in assay [8] it was 0.589 µM; in assay [9], 0.407 µM; in assay [10], 0.406 µM. Moreover, the TGI in [1] was 11.9 µM; in assay [2] it was 15.2 µM; in assay [3], 22.5 µM; in assay [4] it was more than 100 µM; in assay [5], 28.7 µM; in [6], 10.8 µM. Further, the TGI in assay [7] was determined as 27.7 µM; in assay [8], 12.7 µM; in [9] it was 1.61 µM; in assay [10], 4.13 µM.
Regarding `COc1ccc(Cl)cc1Nc1nc(C(F)(F)F)ccc1C(=O)N/N=C/c1ccccc1Cl`, the GI50 in assay [1] is 4.66 µM; in [2], 2.81 µM; in [3], 2.34 µM; in assay [4] it was 10.7 µM; in [5], 2.81 µM; in [6] it was 1.64 µM. Further, the GI50 is 1.88 µM in assay [7], 1.45 µM in assay [8], 1.93 µM in [9] and 3.18 µM in assay [10]. In addition, the TGI in assay [1] is more than 23 µM; in [2], more than 100 µM; in assay [3] it was 12.6 µM; in assay [4], more than 21.8 µM; in assay [5], more than 28 µM; in [6], 12.8 µM. The TGI was 18.2 µM in assay [8], 9.83 µM in assay [9] and more than 26.8 µM in assay [10].
For `CC(=O)OCC1OC([S-])C(OC(C)=O)C(OC(C)=O)C1OC(C)=O.[Au+].c1ccc(CN2[CH-]N(Cc3ccccc3)C(c3ccccc3)=C2c2ccccc2)cc1`, the GI50 in [1] is 1.84 µM and 0.384 µM; in assay [2], 3.08 µM and 0.554 µM; in assay [4] it was 2.59 µM and 0.397 µM; in [5] it was 4.32 µM and 0.98 µM; in assay [6], 1.65 µM and 0.563 µM; in [7], 3.29 µM and 0.399 µM. Also, the GI50 was 3.5 µM and 0.655 µM in assay [8]; 2.15 µM and 0.249 µM in [9]; 1.83 µM and 0.445 µM in assay [10]. The TGI in [1] was 3.63 µM and 1.18 µM; in [2] it was 9.95 µM and 2.52 µM; in assay [3] it was 3.93 µM and 0.437 µM; in assay [4], 7.8 µM and 15.1 µM; in [5], 16.9 µM and 5.14 µM; in [6] it was 3.1 µM and 1.32 µM. The TGI was 14.3 µM and 5.74 µM in [8]; 5.62 µM and 1.14 µM in assay [9]; 4.31 µM and 1.99 µM in assay [10].
Take `CC1=C(C(=O)Nc2ccccc2C)C(c2ccccc2O)C(C(=O)Nc2ccccc2C)=C(C)N1`: the TGI in assay [1] was 31.2 µM; in assay [2], 36.9 µM; in [3], more than 100 µM; in assay [4], more than 100 µM; in [5], 31.2 µM; in assay [6], 44.6 µM. The TGI is more than 100 µM in [7], more than 100 µM in assay [8], 35.7 µM in assay [9] and 38.4 µM in assay [10].
On to `COc1ccccc1/C=C1\CCC(CN2CCOCC2)C1=O` (stereo unspecified), for which the TGI in assay [1] stood at 8.53 µM; in assay [2] it was 22.9 µM; in [3], 40.2 µM; in assay [4], 10.3 µM; in assay [5], 14.5 µM; in assay [6] it was 15.7 µM. In addition, the TGI came to 14.2 µM in assay [7], 31.8 µM in assay [8], 30.3 µM in assay [9] and 31.4 µM in assay [10].
Consider `CSC(=NC(=O)c1ccccc1)SCCSC(=NC(=O)c1ccccc1)SC`, for which the TGI in assay [1] was more than 100 µM; in assay [2], more than 100 µM; in assay [3], 83.4 µM; in assay [4], more than 100 µM; in assay [5], more than 100 µM; in assay [6], more than 100 µM. Also, the TGI in assay [7], in assay [8], in [9] and in assay [10] was more than 100 µM each time.
`CCCCCCCCCCCCCC(=O)NO`: the TGI is 18.2 µM in [1]; more than 94.9 µM in assay [2]; 43.6 µM in [3]; 34.8 µM in assay [4]; 47.2 µM in assay [5]; 15.5 µM in [6]. Also, the TGI is more than 49 µM in [7], 19 µM in assay [8], 11.5 µM in assay [9] and 25.3 µM in [10].
`C=C1CCCC2OC(OC)CCC12` (stereo unspecified): the TGI in assay [1], in assay [2], in assay [3], in assay [4], in [5] and in assay [7] was more than 100 µM in each case. Besides, the TGI in [8], in assay [9] and in assay [10] was more than 100 µM throughout.
For `C=C(C)C1CC=C(C)C(O)([C@@]2(O)C[C@H](C(=C)C)CC=C2C)C1` (stereo partly specified), the TGI was 31.3 µM in assay [1]; 40.1 µM in assay [2]; 40.6 µM in [3]; 49.4 µM in assay [4]; 43.4 µM in assay [5]; 26.9 µM in [6]. In addition, the TGI in assay [7] was found to be 43.9 µM; in assay [9] it was 55.9 µM; in assay [10] it was 55.9 µM.
Consider `CC1(C)C=C(N2CCN(C3=CC(C)(C)NC(C)(C)C3)CC2)CC(C)(C)N1`, for which the TGI in assay [1], in assay [2], in assay [3], in assay [4], in assay [5] and in assay [6] was more than 100 µM throughout. Besides, the TGI in assay [7], in assay [9] and in assay [10] was more than 100 µM each time.
`CC(=O)OC(C)(C)C[N+](=O)[O-]`: the TGI in assay [1], in assay [2], in assay [3], in assay [4], in [5] and in assay [6] was more than 100 µM throughout. Besides, the TGI in assay [7], in assay [8] and in [10] was more than 100 µM in each case.
Regarding `Cc1ccc(-c2nc3ccccc3c(=O)n2NC2OC(CO)C(O)C(O)C2O)cc1` (stereo unspecified), the TGI in [1], in assay [2], in assay [3], in assay [4], in [5] and in assay [7] was more than 100 µM throughout. The TGI in assay [8], in assay [9] and in assay [10] was more than 100 µM in each case.
